Measured values from patent publication US20240307382A1, “MODULATORS OF THE INTEGRATED STRESS PATHWAY” (Calico Life Sciences LLC, priority 2017, published 2024).

tested on: HEK293T cells carrying the ATF4 luciferase reporter; experiment: ATF4-Luc assay (ATF4 luciferase reporter, tunicamycin-treated cells); format: cell-based; conditions: Homo sapiens, HEK-293T, 1 μg/mL tunicamycin, 7 hours
Summary of the method: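 A stable HEK293T reporter line was made by placing the full-length human ATF4 5′-UTR ahead of a firefly luciferase sequence without its start methionine, delivered by retroviral transduction and puromycin selection. Cells were seeded at 30,000 per well in polylysine-coated 384-well plates, exposed next day to 1 μg/mL tunicamycin plus compound for 7 hours, and luminescence was read with One Glo.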

SMILES | EC50 [µM]
Cc1cc(C(=O)NC23CCC(NC(=O)COc4ccc(Cl)c(Cl)c4)(CC2)C(=O)N3)on1 [Compound 1049, N-{4-[2-(3,4-dichlorophenoxy)acetamido]-3-oxo-2-azabicyclo[2.2.2]octan-1-yl}-3-methyl-1,2-oxazole-5-carboxamide] | > 2
O=C(COc1ccc(Cl)c(F)c1)NC12CCC(NC(=O)c3cnc4cc(C(F)(F)F)ccc4n3)(CC1)C[C@@H]2O [Compound 973, N-{(3S)-4-[2-(4-chloro-3-fluorophenoxy)acetamido]-3-hydroxybicyclo[2.2.2]octan-1-yl}-6-(trifluoromethyl)quinoxaline-2-carboxamide] | < 0.05
O=C(COc1ccc(Cl)c(F)c1)NC12CCC(NC(=O)c3ccnc(CO)c3)(CC1)CC2 [Compound 977, N-{4-[2-(4-chloro-3-fluorophenoxy)acetamido]bicyclo[2.2.2]octan-1-yl}-2-(hydroxymethyl)pyridine-4-carboxamide] | > 2
O=C(COc1ccc(Cl)c(F)c1)NC12CC(NC(=O)c3cnc(-c4cccnc4)o3)(C1)C2 [Compound 1042, N-{3-[2-(4-chloro-3-fluorophenoxy)acetamido]bicyclo[1.1.1]pentan-1-yl}-2-(pyridin-3-yl)-1,3-oxazole-5-carboxamide] | < 0.05
O=C(COc1ccc(Cl)c(Cl)c1)NC12CC(NC(=O)c3ccc(Cl)cn3)(C1)C2 [Compound 691, 5-chloro-N-{3-[2-(3,4-dichlorophenoxy)acetamido]bicyclo[1.1.1]pentan-1-yl}pyridine-2-carboxamide] | < 0.05
O=C(COc1ccc(C(F)(F)F)nc1)NC12CCC(NC(=O)c3cc4cc(Cl)ccc4o3)(CC1)C[C@@H]2O [Compound 1076, 5-chloro-N-[(3S)-3-hydroxy-4-(2-{[6-(trifluoromethyl)pyridin-3-yl]oxy}acetamido)bicyclo[2.2.2]octan-1-yl]-1-benzofuran-2-carboxamide] | 0.05 to 0.25
Cc1nc(C(=O)NC23CCC(NC(=O)COc4ccc(Cl)c(Cl)c4)(CC2)[C@@H](O)C3)ccc1C#N [Compound 1034, 5-cyano-N-{(3S)-4-[2-(3,4-dichlorophenoxy)acetamido]-3-hydroxybicyclo[2.2.2]octan-1-yl}-6-methylpyridine-2-carboxamide] | < 0.05
O=C(COc1ccc(F)c(F)c1)NC12CCC(NC(=O)c3cc(C(F)F)no3)(CC1)C[C@@H]2O [Compound 1100, 3-(difluoromethyl)-N-{(3S)-4-[2-(3,4-difluorophenoxy)acetamido]-3-hydroxybicyclo[2.2.2]octan-1-yl}-1,2-oxazole-5-carboxamide] | 0.05 to 0.25
O=C(COc1ccc(Cl)c(F)c1)NC12CC(Nc3cccc(N4CCOCC4)n3)(C1)C2 [Compound 957, 2-(4-chloro-3-fluorophenoxy)-N-(3-{[6-(morpholin-4-yl)pyridin-2-yl]amino}bicyclo[1.1.1]pentan-1-yl)acetamide] | 0.25 to 1
O=C(COc1ccc(Cl)c(Cl)c1)NC12CCC(NC(=O)c3ccc(C(F)F)cn3)(CC1)CC2 [Compound 980, N-{4-[2-(3,4-dichlorophenoxy)acetamido]bicyclo[2.2.2]octan-1-yl}-5-(difluoromethyl)pyridine-2-carboxamide] | 0.05 to 0.25
Cc1ccc(OCC(=O)NC23CCC(NC(=O)c4cc(C(F)F)no4)(CC2)C[C@@H]3O)cc1C [Compound 1097, 3-(difluoromethyl)-N-{(3S)-4-[2-(3,4-dimethylphenoxy)acetamido]-3-hydroxybicyclo[2.2.2]octan-1-yl}-1,2-oxazole-5-carboxamide] | 0.05 to 0.25
O=C(COc1ccc(Cl)c(F)c1)NC12CC(Nc3cc(N4CCOCC4)ccn3)(C1)C2 [Compound 963, 2-(4-chloro-3-fluorophenoxy)-N-(3-{[4-(morpholin-4-yl)pyridin-2-yl]amino}bicyclo[1.1.1]pentan-1-yl)acetamide] | > 2
